Reference: patent US10829496B2, “Thienopyridines and benzothiophenes useful as IRAK4 inhibitors” (BRISTOL-MYERS SQUIBB COMPANY, priority 2017, dated 2020)

How the values were obtained:
[1] = test system: IL-6 levels in human whole blood stimulated with a TLR2 agonist; assay: IRAK4 Whole Blood Assay (TLR2 agonist lipoteichoic acid-stimulated IL-6); type: cell-based; conditions: 10 μg/mL lipoteichoic acid, 5 hours, IL-6 readout
Description: Human whole blood containing the anti-coagulant ACD-A was plated in 384-well plate (25 μL/well) and incubated with compounds for 60 minutes at 37° C. in a 5% CO2 incubator. The blood was stimulated with a TLR2 agonist, 10 μg/mL final concentration of lipoteichoic acid (Invivogen, San Diego, Calif.) in 25 μL RPMI (Gibco) for 5 hours in a 5% CO2 incubator. At the end of the incubation, plates were centrifuged at 2300 rpm for 5 minutes. Supernatants were harvested and analyzed for IL-6 levels by Flow Cytometry beads assay (BD Biosciences, San Jose, Calif.).

[2] = Caco-2 Permeability Assay; type: in vitro ADME; conditions: human, 3 μM compound, 2 hours at 37° C., direction not given
Description: Caco-2 Permeability Assay
Thirteen to 27 days prior to assay, Caco-2 cells were seeded onto collagen-coated polycarbonate filter membranes in 24-well transwell plates at a density of 1.45×10^5 cells/cm^2, approximately 4.8×10^4 cells per well. The cells were grown in a culture medium consisting of DMEM supplemented with 10% fetal bovine serum, 10 mM HEPES, 1% nonessential amino acids, 2 mM L-glutamine, 100 U/mL penicillin-G, and 100 μg/mL streptomycin. The culture medium was replaced every 3 days and the cells were maintained at 37° C. in a 95% relative humidity and 5% CO2 atmosphere. The cells were evaluated for tight junction formation just prior to assay. The test compound was solubilized to 10 mM in 100% DMSO and diluted to 3 μM in assay buffer. Permeability studies were initiated by adding 200 μL assay buffer plus/minus compound to the apical transwell compartment and 600 μL assay buffer plus/minus compound to the basolateral compartment of the 24-well transwell low-binding cluster plate. For apical-to-basolateral (A to B) permeability (absorptive direction), buffer containing compound was placed in the apical compartment (donorwells), while buffer alone was placed in the corresponding basolateral compartments (receiverwells). For basolateral-to-apical (B to A) permeability (secretive direction), buffer containing compound was placed in the basolateral compartment (donor wells), while buffer alone was placed in the corresponding apical compartments (receiver wells). Transwells were then incubated for 2 hours at 37° C. in a 95% relative humidity and 5% CO2 atmosphere with gentle agitation. Following incubation, 100 μL was removed from each apical and basolateral compartment and transferred to 96-well low binding plates that had been previously loaded with 100 μL/well of acetonitrile containing 250 nM propranolol, 250 nM diclofenac, and 500 nM tolbutamide as internal standards. The samples were subsequently analyzed by LC-MS/MS to determine concentrations of compound.

IRAK4 = IRAK4 (Homo sapiens (Human), UniProt Q9NWZ3); assay: IRAK4 Inhibition Assay; type: biochemical; conditions: ATP 500 μM; IRAK4 0.6 nM; 60 min at room temperature
Description: The assays were performed in U-bottom 384-well plates. The final assay volume was 30 μL prepared from 15 μL additions of enzyme and substrates (fluoresceinated peptide and ATP) and test compounds in assay buffer (20 mM HEPES pH 7.2, 10 mM MgCl2, 0.015% Brij 35 and 4 mM DTT). The reaction was initiated by the combination of IRAK4 with substrates and test compounds. The reaction mixture was incubated at room temperature for 60 min. and terminated by adding 45 μL of 35 mM EDTA to each sample. The reaction mixture was analyzed on the Caliper LABCHIP® 3000 (Caliper, Hopkinton, Mass.) by electrophoretic separation of the fluorescent substrate and phosphorylated product. Inhibition data were calculated by comparison to no enzyme control reactions for 100% inhibition and vehicle-only reactions for 0% inhibition. The final concentrations of reagents in the assays are ATP, 500 μM; FL-IPTSPITTTYFFFKKK peptide 1.5 μM; IRAK4, 0.6 nM; and DMSO, 1.6%.

Sequence of IRAK4 (Q9NWZ3 whole entry): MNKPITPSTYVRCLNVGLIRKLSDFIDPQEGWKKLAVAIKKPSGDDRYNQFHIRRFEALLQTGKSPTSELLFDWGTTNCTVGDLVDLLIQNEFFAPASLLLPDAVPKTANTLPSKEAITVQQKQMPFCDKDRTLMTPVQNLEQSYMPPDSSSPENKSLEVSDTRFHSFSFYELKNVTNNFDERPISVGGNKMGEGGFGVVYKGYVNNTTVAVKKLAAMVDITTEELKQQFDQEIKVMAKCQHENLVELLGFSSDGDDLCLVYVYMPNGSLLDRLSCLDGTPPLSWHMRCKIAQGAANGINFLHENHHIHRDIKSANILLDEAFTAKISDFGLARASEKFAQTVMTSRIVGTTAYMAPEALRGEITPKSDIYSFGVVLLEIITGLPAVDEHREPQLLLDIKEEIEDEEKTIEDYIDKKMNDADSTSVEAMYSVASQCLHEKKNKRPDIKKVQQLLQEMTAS

- EC50 [1]: 736 nM
- Papp at 2 h, 3 µM [2]: 5.8 ×10⁻⁶ cm/s
- IC50 (IRAK4): 13.3 nM
SMILES: COc1nc2c(OC[C@H]3NC(=O)[C@@H](F)[C@H]3C)csc2cc1C(N)=O [Example 28, 3-(((2S,3S,4S)-4-fluoro-3-methyl-5-oxopyrrolidin-2-yl)methoxy)-5-methoxythieno[3,2-b]pyridine-6-carboxamide]
